Measurements reported in patent US20140193802A1, “IDENTIFICATION OF AN ALTERED THERAPEUTIC SUSCEPTIBILITY TO ANTI-HCMV COMPOUNDS AND OF A RESISTANCE AGAINST ANTI-HCMV COMPOUNDS” (priority 2012, published 2014).
Read-outs that look alike come from different tables or passages of the source.

How the values were obtained:
Format in all cases: cell-based, human cytomegalovirus (HCMV)
RV-HG UL56-C325Yrev = assay: GFP-RA, marker transfer revertant; conditions: Human betaherpesvirus 5
Description: HCMV Fluorescence Reduction Assay (GFP-RA)
The susceptibilities of recombinant HCMV laboratory strains expressing GFP were determined by a GFP-based fluorescence reduction assay. For standard assays, 1.5×10^4 NHDF cells/well were cultured in black 96-well plates (Greiner Bio-One, Germany) and infected with either HCMV-GFP (MOI, 0.1) or RV-HG (MOI, 0.2 to 0.5). After virus adsorption, the virus inoculum was replaced with 200 μl fresh medium. Thereafter, 100 μl medium containing the test compounds was added to wells of horizontal row G, followed by serial 3-fold dilutions up to row A. All drug concentrations were tested at least in duplicate. Wells of the horizontal row H served as the virus control. Plates were incubated at 37° C. for 7 days. The medium was replaced by 200 μl PBS, and GFP units (GFPU) were determined by a charge-coupled-device-camera-based fluorescence detector (FluoBox; Bayer Technology Services GmbH, Leverkusen, Germany), which captures 96 images simultaneously. Drug effects were calculated as a percentage of reduction in GFPU in the presence of each drug concentration compared to the GFPU determined in the absence of drug. EC50 and EC90 values (drug concentrations producing 50% and 90% reduction in GFPU) were calculated using nonlinear regression curve fit with a variable slope. GraphPad Prism 3.02 or 4.0 software (GraphPad Software Inc., La Jolla, Calif.) was used for all analyses.
The HCMV AD169-derived bacterial artificial chromosome (BAC) pHG served as the backbone for the construction of the mutant viruses. The markerless introduction of point mutations into pHG was done using a two-step recombination protocol according to the en passant method. Briefly, a recombination fragment containing the I-SceI-AphAI cassette from plasmid pEPKan-S was obtained by PCR using primers containing ˜60 bp of homology to the intended integration site in ORF UL56 of BAC pHG and ˜20 bp specific for pEPKan-S. This fragment was electroporated into Escherichia coli GS1783 that harbored the pHG BAC. […] After successful kanamycin selection, all non-HCMV sequences were removed by an intrabacterial ISceI digest and a subsequent second Red recombination, resulting in the scarless repair of the mutated UL56 gene in the background of BAC pHG. The integrity of the generated BACs was confirmed by restriction enzyme digestion and sequencing. To reconstitute virus mutants, the recombinant BACs were transfected into permissive MRC5 cells. At least two independent virus clones per mutation were generated and evaluated.

[1] = test system: HCMV AD169 mutant rAIC246-2 (UL56 R369S); assay: CPE-RA, letermovir-selected mutant; conditions: for EC50: Human betaherpesvirus 5, AD169, rAIC246-2 (UL56 R369S), CPE reduction assay, mean ± SD
Description: (§1) HCMV Cytopathic Effect Reduction Assay (CPE-RA)
(§2) CPE-RAs were performed basically as described elsewhere (HCMV replication assay). In brief, the addition of 2 μl test compound of 50, 5, 0.5, 0.05, 0.005, and 0.0005 mM DMSO stock solutions to 100 μl cell culture medium in duplicate was followed by serial 2-fold dilutions in 96-well microtiter plates. Each well was supplemented with 150 μl of either a suspension of 1×10^4 NHDF cells mixed with cell-free HCMV (multiplicity of infection (MOI), 0.03) or a suspension of 1×10^4 to 3×10^4 HCMV-infected and uninfected NHDF cells (MOI, 0.001 to 0.002). Non-infected and non-treated cells served as controls on each plate. Final compound concentrations ranged between 250 and 0.00005 μM. Plates were incubated for 6 to 7 days at 37° C. or until the virus control reached 100% CPE. A mixture containing 20% Giemsa stain (Merck) and 5% formalin solution (Merck) was added to the wells for fixation and staining. After extensive washing, plates were dried at 56° C. followed by visual evaluation using an overhead microscope (plaque magnifier; Tecnorama Zürich). Each assay was performed at least in triplicate, and standard deviations were calculated. The assay plate data were used to calculate the EC50 (CPE-RA), i.e., the concentration of drug that inhibits the CPE by 50% compared with an untreated virus-infected control.
(§3) Drug-resistant HCMV AD169 mutants were selected by the single-step selection method or by serial passage of the virus in the presence of increasing concentration of Letermovir. Briefly, 5×10^3 AD169-infected NHDF cells/well (MOI, 0.03 PFU/cell) were seeded into the wells of 30 96-well microtiter plates. The infection was allowed to proceed under the exposure of 50 nM Letermovir (˜10×EC50) until a CPE developed in one or more of the compound-treated wells (indicative of resistant virus breakthrough). Non-infected and non-treated cells served as controls on each plate. Mutant virus amplification was accomplished after cultures achieved maximum CPE by the passage of cell-free supernatant virus in the presence of 50 nM Letermovir. The resultant Letermovir-resistant progeny virus mutants were plaque purified three times by limiting dilutions in the presence of Letermovir. The stability of resistance was tested by serially passaging plaque-purified viruses without selective pressure (8 to 10 times). The resistant phenotype of the mutants was confirmed by CPE reduction assays.

[2] = test system: HCMV AD169 mutant rAIC246-8 (UL56 C325Y); assay: CPE-RA, letermovir-selected mutant; conditions: for EC50: Human betaherpesvirus 5, AD169, rAIC246-8 (UL56 C325Y), CPE reduction assay, mean ± SD
Description: as §1, §2, §3

[3] = test system: HCMV AD169 mutant rAIC246-4 (UL56 V231L); assay: CPE-RA, letermovir-selected mutant; conditions: for EC50: Human betaherpesvirus 5, AD169, rAIC246-4 (UL56 V231L), CPE reduction assay, mean ± SD
Description: as §1, §2, §3

[4] = test system: HCMV AD169 mutant rAIC246-5 (UL56 R369M); assay: CPE-RA, letermovir-selected mutant; conditions: for EC50: Human betaherpesvirus 5, AD169, rAIC246-5 (UL56 R369M), CPE reduction assay, mean ± SD
Description: as §1, §2, §3

[5] = test system: HCMV AD169 mutant rAIC246-3 (UL56 C325Y); assay: CPE-RA, letermovir-selected mutant; conditions: for EC50: Human betaherpesvirus 5, AD169, rAIC246-3 (UL56 C325Y), CPE reduction assay, mean ± SD
Description: as §1, §2, §3

[6] = test system: HCMV AD169 mutant rAIC246-1 (UL56 L241P); assay: CPE-RA, letermovir-selected mutant; conditions: for EC50: Human betaherpesvirus 5, AD169
Description: as §1, §2, §3

HCMV strain AD169 = assay: HCMV cytopathic effect reduction assay (CPE-RA); conditions: Human betaherpesvirus 5, mean ± SD
Description: as §1, §2

Structure (SMILES) | EC50 (RV-HG UL56-C325Yrev) [nM] | EC50 [1] [nM] | EC50 [2] [nM] | EC50 [3] [nM] | EC50 [4] [nM] | EC50 [5] [nM] | EC50 [6] [nM] | EC50 (HCMV strain AD169) [nM] | EC50 (RV-HG UL56-C325Yrev; RV-HG UL56-C325Yrev, fluorescence reduction assay, mean ± SD, read-out: EC50) [nM] | Resistance index (RI) = letermovir-EC50 mutant virus/letermovir-EC50 wild-type virus ([1]; rAIC246-2 vs AD169) | Resistance index (RI) = letermovir-EC50 mutant virus/letermovir-EC50 wild-type virus ([2]; rAIC246-8 vs AD169) | Resistance index (RI) = letermovir-EC50 mutant virus/letermovir-EC50 wild-type virus ([3]; rAIC246-4 vs AD169) | Resistance index (RI) = letermovir-EC50 mutant virus/letermovir-EC50 wild-type virus ([4]; rAIC246-5 vs AD169) | Resistance index (RI) = letermovir-EC50 mutant virus/letermovir-EC50 wild-type virus ([5]; rAIC246-3 vs AD169) | Resistance index (RI) = letermovir-EC50 mutant virus/letermovir-EC50 wild-type virus ([6]; rAIC246-1 vs AD169)
Nc1nc(O)c2ncn(COC(CO)CO)c2n1 [Ganciclovir] | 2830 ± 810 | 4000 ± 900 | 2200 ± 1200 | 4200 ± 1300 | 5000 ± 400 | 2400 ± 2500 | 1200 ± 200 | 3400 ± 1500 |  |  |  |  |  |  | 
COc1cccc(N2CCN(C3=Nc4c(F)cccc4[C@H](CC(=O)O)N3c3cc(C(F)(F)F)ccc3OC)CC2)c1 [Letermovir, (S)-{8-fluoro-2-[4-(3-methoxyphenyl)-1-piperazinyl]-3-[2-methoxy-5-(trifluoromethyl)phenyl]-3,4-dihydro-4-quinazolinyl}acetic acid] |  | 370 ± 70 | 25000 ± 5530 | 130 ± 10 | 110 ± 10 | 27000 ± 3270 | 1240 ± 360 | 5.6 ± 1.6 | 3.9 ± 0.9 | 66 | 4428 | 23 | 19 | 4801 | 221
